{"source": "paper PMC12333940", "about": "“A prometabolite strategy inhibits cardiometabolic disease in an ApoE^–/– murine model of atherosclerosis” (JCI Insight, 2025)", "key": {"[1]": {"tested_on": "NF-κB", "test": "NF-κB-SEAP reporter assay in RAW-Blue cells after LPS", "assay_type": "cell-based", "conditions": "then 200 ng/mL LPS 6 h", "description": "NF-κB inhibition was assayed using the NF-κB-SEAP reporter cell line, RAW-Blue (InvivoGen, raw-sp). Cells were plated in round-bottom 96-well plates at 100,000 cells per well and cocultured with different concentrations of either NaBut or SerBut (0.15–12 mM) for 24 hours. After the addition of butyrate, cells were rinsed with phosphate buffered saline (PBS) and then stimulated with 200 ng/mL LPS in media for 6 hours."}, "[2]": {"tested_on": "RAW 264.7 macrophages", "test": "Flow cytometry of iNOS, CD80, CD86 in LPS-stimulated RAW 264.7", "assay_type": "cell-based", "conditions": "for CD80 MFI / iNOS MFI: then LPS 6 h; for CD80+ % Live / CD86+ % Live / iNOS+ %Live: listed as NB", "description": "RAW 264.7 (ATCC, TIB-71) macrophages were cultured at 37°C and 5% CO2 in DMEM (Gibco) supplemented with 1 mM HEPES, 1 mM sodium pyruvate, 10% FBS, and penicillin/streptomycin. Cells were plated in round-bottom 96-well plates at 100,000 cells per well and incubated with different concentrations of either NaBut or SerBut (0.15–12 mM) for 24 hours. […] The cell culture supernatant was collected and analyzed by LEGENDPlex to analyze the concentrations of cytokines (BioLegend). Cell phenotype was analyzed using flow cytometry (Cytek Aurora).\nFlow cytometry was performed using a BD LSRFortessa or a Cytek Aurora full-spectrum cytometer. Data were analyzed using FlowJo version 10.8.0. eFluor 780 Viability Dye (Invitrogen, 65-0865-14) and antibodies against the following markers were used in the RAW 264.7 macrophage in vitro studies: CD86 (BV421; BD Horizon, catalog 564198), CD80 (BC650; BioLegend, clone 16-10A1, catalog 104732), and iNOS (APC; Invitrogen, clone CXNFT, catalog 17-5920-9). Live/Dead Blue (Invitrogen, 123105A) and antibodies against the following markers were used in the atherosclerosis mouse models: F4/80 (FITC; BioLegend, clone BM8, catalog 123108), CD3e (BV605; BD Biosciences, clone 145-2C11, catalog 563565), CD4 (BUV496; BD Biosciences, clone GK 1.5, catalog 612952), RORγt (AF647; BD Biosciences, clone Q31-378, catalog 562682), FoxP3 (AF488, BD Biosciences, clone MF23, catalog 560403), CCR2 (PE; R&D Systems, catalog FAB5538P), Ly6C (APC-Cy7; BioLegend, catalog 128026, clone HK1.4), Ly6G (AF488; BioLegend, catalog 127626), CD8 (APC-Cy7; BioLegend, clone 53-6.7, catalog 100714), CD45 (BUV805; Invitrogen, clone 30-F11, catalog 368-0451-82), and CD25 (PerCP-Cy5.5; BioLegend, clone PC61, catalog 102030)."}, "[3]": {"test": "Biodistribution of free butyrate in intestinal tissue and contents, C57BL/6 mice", "assay_type": "in vivo", "conditions": "C57BL/6, normal chow; 3 hr after single gavage", "from_the_text": "NaBut is limited in its translation by butyrate’s rapid consumption by colonocytes as a primary energy source in the distal gut. We propose that the enhanced biodistribution of free, active butyrate (following cleavage from serine) in SerBut-treated mice is due to small intestinal escape from the gut via amino acid transporters. To probe this hypothesis, we repeated the experiment and analyzed the biodistribution of free active butyrate in distinct sections of the intestinal tissue and the intestinal contents (Figure 2, K and L, and Supplemental Figure 2). Because neither ApoE^–/– nor HFD feeding would be expected to change amino acid receptor expression or function in the intestine, this was performed in C57BL/6 mice on a normal diet. […] We saw no increase in butyrate in the colon tissue (Figure 2P).\nSamples were prepared and derivatized as described previously ([28]). […] The internal standard, 4-methylvaleric acid, was added.\nInjection volume: 5.0 μL. Flow rate: 0.5 mL/min."}, "[4]": {"tested_on": "ApoE^–/– mice on an HFD", "test": "Flow cytometry of the aorta", "assay_type": "in vivo, mouse", "parameters": "Aorta Flow CD11b+F480+ / Aorta Flow CD11b+Ly6Chi: unit not given here", "from_the_text": "SerBut water was pH adjusted using 10 M NaOH to a final pH of 7.4. […] After 6 weeks, mice were euthanized. […] The liver was harvested and part was homogenized in tissue protein extraction reagent buffer (Invitrogen, 78510) supplemented with protease inhibitor mini tablets (Thermo Fisher Scientific, PIA32955) for Western blotting and qPCR. […] The heart with the ascending and descending aorta to the diaphragm was harvested. The perivascular adipose tissue was carefully removed by microdissection while keeping the adventitia intact. […] After 45 minutes of digestion at 37°C with orbital shaking, aortas were passed through a 70 μm cell strainer, rinsed, pelleted, and plated into a U-bottom 96-well microplate for staining. […] Cells were washed in PBS supplemented with 2% FBS (FACS buffer) and stained for 30 minutes on ice with surface antibodies at a 1:200 dilution in a 1:1 mixture of FACS buffer and Brilliant Stain Buffer (BD Biosciences). Cells were washed with FACS buffer and PBS and fixed with 2% paraformaldehyde on ice for 20 minutes. Cells were washed twice with PBS and resuspended in FACS buffer. Precision count beads (BioLegend) were used to determine absolute cell counts. In this study, antibodies used included those against CD16/CD32 (BioLegend, clone 93, catalog 101302), CCR2 (PE; […] BD Biosciences, clone HL3, catalog 558079, BD Biosciences), […] (APC; […] BD Biosciences, clone 30-F11, catalog 564225), F4/80 (BUV496; BD Biosciences, clone T45-2342, catalog 750644), […].5; BioLegend, clone M5/114.15.2, catalog 107626), Ly-6C (APC-Cy7; […]"}, "[5]": {"conditions": "0.45 mM, 12 Hour LPS stim after Butyrate treament"}, "[6]": {"conditions": "0.45 mM, 12 hour LPS stim before butyrate treatment"}, "[7]": {"conditions": "1.3 mM, 12 Hour LPS stim after Butyrate treament"}, "[8]": {"conditions": "1.3 mM, 12 hour LPS stim before butyrate treatment"}}, "note": "Where “and” joins values, the source holds several entries; their conditions need not be identical. Identical values can stand only once."}
{"smiles": "CCCC(=O)[O-].[Na+]", "note": "[NaBut, sodium butyrate, reference compound]", "values": [{"measurement": "NFkB OD", "setting": "[1]; 0.45 mM 24 h", "value": "0.161 and 0.132 and 0.164 and 0.174 and 0.222 and 0.147"}, {"measurement": "NFkB OD", "setting": "[1]; 1.3 mM 24 h", "value": "0.118 and 0.109 and 0.114 and 0.106 and 0.112 and 0.117"}, {"measurement": "NFkB OD", "setting": "[1]; 4 mM 24 h", "value": "0.077 and 0.086 and 0.085 and 0.074 and 0.081"}, {"measurement": "CD80 MFI", "setting": "[2]; 0.15 mM 24 h", "value": "22618 and 22070 and 22276"}, {"measurement": "iNOS MFI", "setting": "[2]; 0.15 mM 24 h", "value": "132178 and 120454 and 127565"}, {"measurement": "CD80 MFI", "setting": "[2]; 0.45 mM 24 h", "value": "22987 and 22543 and 22840"}, {"measurement": "iNOS MFI", "setting": "[2]; 0.45 mM 24 h", "value": "139940 and 135604 and 131383"}, {"measurement": "CD80+ % Live", "setting": "[2]; [5]", "value": "31.4% and 45.9% and 36.7%"}, {"measurement": "CD86+ % Live", "setting": "[2]; [5]", "value": "10.9% and 12.8% and 11.6%"}, {"measurement": "iNOS+ %Live", "setting": "[2]; [5]", "value": "72.8% and 94.5% and 85.8%"}, {"measurement": "CD80+ % Live", "setting": "[2]; [6]", "value": "55.4% and 59.7% and 52.7%"}, {"measurement": "CD86+ % Live", "setting": "[2]; [6]", "value": "16.4% and 16% and 15.5%"}, {"measurement": "iNOS+ %Live", "setting": "[2]; [6]", "value": "39.7% and 50% and 39.3%"}, {"measurement": "CD80 MFI", "setting": "[2]; 1.3 mM 24 h", "value": "22932 and 22915 and 22360"}, {"measurement": "iNOS MFI", "setting": "[2]; 1.3 mM 24 h", "value": "123416 and 155157 and 124806"}, {"measurement": "CD80+ % Live", "setting": "[2]; [7]", "value": "40.8% and 54.3% and 32.8%"}, {"measurement": "CD86+ % Live", "setting": "[2]; [7]", "value": "22.7% and 26% and 18.7%"}, {"measurement": "iNOS+ %Live", "setting": "[2]; [7]", "value": "66.2% and 87.1% and 52%"}, {"measurement": "CD80+ % Live", "setting": "[2]; [8]", "value": "47.8% and 46.8% and 51.4%"}, {"measurement": "CD86+ % Live", "setting": "[2]; [8]", "value": "16.7% and 17.4% and 18.3%"}, {"measurement": "iNOS+ %Live", "setting": "[2]; [8]", "value": "31.6% and 29.4% and 31.8%"}, {"measurement": "free butyrate, Colon Contents", "setting": "[3]", "value": 384.57, "unit": "µg/g"}, {"measurement": "free butyrate, Lower SI Contents", "setting": "[3]", "value": "41.6523 µg/g and 45.1024 µg/g and 60.4329 µg/g and 68.0864 µg/g"}, {"measurement": "CD45^+ total leukocytes, CD11b^+ monocytes and CCR2^+CD11b^+ monocytes in the aorta", "setting": "[4]; 6 weeks, compared with control groups", "value": "did not"}, {"measurement": "CD11c^+MHCII^hi dendritic cells, CD11b^+F480^+ macrophages and CD19^+ B cells in the aorta", "setting": "[4]; 6 weeks, compared with water controls", "value": "significantly reduced"}, {"measurement": "Aorta Flow B cell Count", "setting": "[4]; individual mice", "value": "315.036 and 240.601 and 72.6582 and 149.307 and 158.07 and 295.152 and 181.142 and 268.448 and 139.825 and 307.858"}, {"measurement": "Aorta Flow CD11b+F480+", "setting": "[4]; individual mice", "value": "25.0597 and 7.5188 and 3.353 and 10.7501 and 8.319 and 26.3753 and 5.998 and 6.129 and 4.994 and 11.9789"}, {"measurement": "Aorta Flow CD11b+Ly6Chi", "setting": "[4]; individual mice", "value": "10.7965 and 20.8384 and 26.2172 and 17.9684 and 39.3795 and 20.0501 and 6.707 and 17.9169 and 5.942 and 82.8937"}, {"measurement": "Aorta Flow T Cell Count", "setting": "[4]; individual mice", "value": "829.356 and 329.574 and 100.604 and 316.531 and 316.14 and 663.15 and 236.324 and 566.315 and 510.612 and 977.48"}, {"measurement": "Aorta Flow CD11b+ Count", "setting": "[4]; individual mice, experiment 2", "value": "159.148 and 69.3047 and 197.085 and 244.83 and 668.174 and 122.361 and 438.833 and 237.203 and 489.938 and 511.933"}, {"measurement": "Aorta Flow CD11b+CCR2+", "setting": "[4]; individual mice, experiment 2", "value": "22.5564 and 10.0604 and 29.8614 and 43.9743 and 133.132 and 27.5912 and 84.5795 and 57.4282 and 142.549 and 96.6587"}, {"measurement": "Aorta Flow CD45 Count", "setting": "[4]; individual mice, experiment 2", "value": "1122.81 and 480.662 and 1340.18 and 1250.3 and 2283.35 and 857.726 and 1975.97 and 1910.11 and 5505.51 and 4110.98"}, {"measurement": "Aorta Flow CD11c+MHCIIhi", "setting": "[4]; individual mice, cell count", "value": "16.2907 and 5.589 and 14.3335 and 20.2044 and 75.358 and 13.1958 and 30.6448 and 26.2172 and 32.3431 and 60.8592"}]}
